Experimental data: patent US6489315B1, “Cyclic compounds, their production and use” (Takeda Chemical Industries, Ltd., priority 1995, dated 2002)

melting point	SMILES
183 to 184 °C	O=C1c2c(-c3ccccc3)cc(CCl)nc2OCCN1Cc1cc(C(F)(F)F)cc(C(F)(F)F)c1 [Example 39, 4-[3,5-Bis(trifluoromethyl)benzyl]-8-chloromethyl-2,3,4,5-tetrahydro-5-oxo-6-phenylpyrido[3,2-f][1,4]oxazepine]
164 to 165 °C	Cc1cc(-c2ccccc2)c2c(n1)OCCCN(Cc1cc(C(F)(F)F)cc(C(F)(F)F)c1)C2=O [Example 34, 5-[3,5-Bis(trifluoromethyl)benzyl]-2,3,4,5-tetrahydro-9-methyl-6-oxo-7-phenyl-6H-pyrido[2,3-b][1,5]oxazocine]
203 to 204 °C	Cc1ccc(-c2ccnc3c2C(=O)N(Cc2ccccc2)CCO3)cc1 [Example 79, 4-Benzyl-2,3,4,5-tetrahydro-5-oxo-6-(4-methylphenyl)pyrido(3,2-f][1,4]oxazepine]
223 to 224 °C	CC(=O)NCc1cc(-c2ccccc2)c2c(n1)OCCN(Cc1cc(C(F)(F)F)cc(C(F)(F)F)c1)C2=O [Example 48, 8-Acetylaminomethyl-4-[3,5-bis(trifluoromethyl)benzyl]-2,3,4,5-tetrahydro-5-oxo-6-phenylpyrido[3,2-f][1,4]oxazepine]
242 to 244 °C	C[C@H]1CCn2c(c(-c3ccccc3)c3cccnc3c2=O)C(=O)N(Cc2cc(C(F)(F)F)cc(C(F)(F)F)c2)C1 [Example 19, (9S)-7-[3,5-Bis(trifluoromethyl)benzyl]-6,7,8,9,10,11-hexahydro-9-methyl-6,13-dioxo-5-phenyl-13H-[1,4]diazocino[2,1-g][1,7]naphthyridine]
270 to 271 °C	Cc1ccc(-c2c3n(c(=O)c4ncccc24)CCN(Cc2cc(C(F)(F)F)cc(C(F)(F)F)c2)C3=O)cc1 [Example 1, 7-[3,5-Bis(trifluoromethyl)benzyl]-6,7,8,9-tetrahydro-5-(4-methylphenyl)-6,11-dioxo-11H-pyrazino[2,1-g][1,7]naphthyridine]
218 to 220 °C	O=C(c1cc(-c2ccccc2)c2c(n1)OCCN(Cc1cc(C(F)(F)F)cc(C(F)(F)F)c1)C2=O)N1CCCCC1 [Example 61, 4-[3,5-Bis(trifluoromethyl)benzyl]-2,3,4,5-tetrahydro-5-oxo-6-phenyl-8-piperidinocarbonylpyrido[3,2-f][1,4]oxazepine]
209 to 211 °C	O=C1c2c(-c3ccccc3)ccnc2OCCN1Cc1ccccc1 [Example 67, 4-Benzyl-2,3,4,5-tetrahydro-5-oxo-6-phenylpyrido[3,2-f][1,4]oxazepine]
179 to 180 °C	Cc1ccc(-c2c3n(c(=O)c4ncccc24)C[C@@H](C)CN(Cc2cc(C(F)(F)F)cc(C(F)(F)F)c2)C3=O)cc1 [Example 14, (9S)-7-(3,5-Bis(trifluoromethyl)benzyl]-6,7,8,9,10,12-hexahydro-9-methyl-5-(4-methylphenyl)-6,12-dioxo[1,4]diazepino[2,1-g][1,7]naphthyridine]
242 to 243 °C	O=C1c2c(-c3ccccc3)ccnc2NCCN1Cc1cc(C(F)(F)F)cc(C(F)(F)F)c1 [Example 21, 4-[3,5-Bis(trifluoromethyl)benzyl]-2,3,4,5-tetrahydro-5-oxo-6-phenyl-1H-pyrido[2,3-e][1,4]diazepine]
200 to 201 °C	O=C1c2c(-c3ccccc3)ccnc2OCCN1Cc1cc(C(F)(F)F)cc(C(F)(F)F)c1 [Example 11, 4-[3,5-Bis(trifluoromethyl)benzyl]-2,3,4,5-tetrahydro-5-oxo-6-phenylpyrido[3,2-f][1,4]oxazepine]
235 to 236 °C	CN(C)C(=O)c1cc(-c2ccccc2)c2c(n1)OCCN(Cc1cc(C(F)(F)F)cc(C(F)(F)F)c1)C2=O [Example 59, 4-[3,5-Bis(trifluoromethyl)benzyl]-N,N-dimethyl-2,3,4,5-tetrahydro-5-oxo-6-phenylpyrido[3,2-f][1,4]oxazepine-8-carboxamide]
159 to 160 °C	Cc1ccc(-c2ccnc3c2C(=O)N(Cc2cc(C(F)(F)F)cc(C(F)(F)F)c2)C[C@H](C)CO3)cc1 [Example 82, (S)-5-[3,5-Bis(trifluoromethyl)benzyl]2,3,4,5-tetrahydro-3-methyl-7-(4-methylphenyl)-6-oxo-6H-pyrido[2,3-b][1,5]oxazocine]
194 to 195 °C	Cc1ccc(-c2c3n(c(=O)c4ncccc24)CCCN(Cc2cc(C(F)(F)F)cc(C(F)(F)F)c2)C3=O)cc1 [Example 2, 7-[3,5-Bis(trifluoromethyl)benzyl]-6,7,8,9,10,12-hexahydro-5-(4-methylphenyl)-6,12-dioxo[1,4]diazepino[2,1-g][1,7]naphthyridine]
186 to 188 °C	CN(C)Cc1cc(-c2ccccc2)c2c(n1)OCCN(Cc1cc(C(F)(F)F)cc(C(F)(F)F)c1)C2=O [Example 45, 4-[3,5-Bis(trifluoromethyl)benzyl]-8-dimethylaminomethyl-2,3,4,5-tetrahydro-5-oxo-6-phenylpyrido[3,2-f][1,4]oxazepine]
282 to 283 °C	Cc1ccc(-c2c3n(c(=O)c4ncccc24)CC(O)CN(Cc2cc(C(F)(F)F)cc(C(F)(F)F)c2)C3=O)cc1 (racemic) [Example 25, (+/−)-7-[3,5-Bis(trifluoromethyl)benzyl]-6,7,8,9,10,12-hexahydro-9-hydroxy-5-(4-methylphenyl)-6,12-dioxo[1,4]diazepino [2,1-g][1,7]naphthyridine]
188 to 191 °C	NCc1cc(-c2ccccc2)c2c(n1)OCCN(Cc1cc(C(F)(F)F)cc(C(F)(F)F)c1)C2=O [Example 43, 8-Aminomethyl-4-[3,5-bis(trifluoromethyl)benzyl]-2,3,4,5-tetrahydro-5-oxo-6-phenylpyrido[3,2-f][1,4]oxazepine]
145 °C (dec.)	CNC(=O)c1cc(-c2ccccc2)c2c(n1)OCCN(Cc1cc(C(F)(F)F)cc(C(F)(F)F)c1)C2=O [Example 58, 4-[3,5-Bis(trifluoromethyl)benzyl]-N-methyl-2,3,4,5-tetrahydro-5-oxo-6-phenylpyrido[3,2-f][1,4]oxazepine-8-carboxamide]
167 to 169 °C	CN1CCN(Cc2cc(C(F)(F)F)cc(C(F)(F)F)c2)C(=O)c2c(-c3ccccc3)ccnc2C1=O [Example 51, 6-[3,5-Bis(trifluoromethyl)benzyl]-5,6,7,8,9,10-hexahydro-9-methyl-5,10-dioxo-4-phenylpyrido[2,3-f][1,4]diazocine]
139 to 141 °C	C[C@@H]1COc2nccc(-c3ccccc3)c2C(=O)N(Cc2ccccc2)C1 [Example 69, (S)-5-Benzyl-2,3,4,5-tetrahydro-3-methyl-6-oxo-7-phenyl-6H-pyrido[2,3-b][1,5]oxazocine]
194 to 196 °C	CCCCNC(=O)c1cc(-c2ccccc2)c2c(n1)OCCN(Cc1cc(C(F)(F)F)cc(C(F)(F)F)c1)C2=O [Example 60, 4-[3,5-Bis(trifluoromethyl)benzyl]-N-n-butyl-2,3,4,5-tetrahydro-5-oxo-6-phenylpyrido[3,2-f][1,4]oxazepine-8-carboxamide]
175 to 176 °C	COc1ccc(CN2CCOc3nccc(-c4ccccc4)c3C2=O)cc1OC [Example 66, 4-(3,4-Dimethoxybenzyl)-2,3,4,5-tetrahydro-5-oxo-6-phenylpyrido[3,2-f][1,4]oxazepine]
139 to 140 °C	COCc1cc(-c2ccccc2)c2c(n1)OCCN(Cc1cc(C(F)(F)F)cc(C(F)(F)F)c1)C2=O [Example 40, 4-[3,5-Bis(trifluoromethyl)benzyl]-2,3,4,5-tetrahydro-8-methoxymethyl-5-oxo-6-phenylpyrido[3,2-f][1,4]oxazepine]
179 to 180 °C	Cc1ccc(-c2c3n(c(=O)c4ncccc24)C[C@H](C)CN(Cc2cc(C(F)(F)F)cc(C(F)(F)F)c2)C3=O)cc1 [Example 12, (9R)-7-[3,5-Bis(trifluoromethyl)benzyl]-6,7,8,9,10,12-hexahydro-9-methyl-5-(4-methylphenyl)-6,12-dioxo[1,4]diazepino[2,1-g][1,7]naphthyridine]
194 to 195 °C	CS(=O)(=O)NCc1cc(-c2ccccc2)c2c(n1)OCCN(Cc1cc(C(F)(F)F)cc(C(F)(F)F)c1)C2=O [Example 49, 4-[3,5-Bis(trifluoromethyl)benzyl]-2,3,4,5-tetrahydro-8-methanesulfonylaminomethyl-5-oxo-6-phenylpyrido[3,2-f][1,4]oxazepine]
148 to 149 °C	Cc1ccc(-c2ccnc3c2C(=O)N(Cc2ccccc2)C[C@H](C)CO3)cc1 [Example 81, (S)-5-Benzyl-2,3,4,5-tetrahydro-3-methyl-7-(4-methylphenyl)-6-oxo-6H-pyrido[2,3-b][1,5]oxazocine]
226 to 228 °C	Cc1ccc(-c2c3n(c(=O)c4ncccc24)CC[C@@H](C)CN(Cc2cc(C(F)(F)F)cc(C(F)(F)F)c2)C3=O)cc1 [Example 18, (9R)-7-[3,5-Bis(trifluoromethyl)benzyl]-6,7,8,9,10,11-hexahydro-9-methyl-5-(4-methylphenyl)-6,13-dioxo-13H-[1,4]diazocino[2,1-g][1,7]naphthyridine]
227 to 228 °C	Cc1ccc(-c2c3n(c(=O)c4ncccc24)CC[C@H](C)CN(Cc2cc(C(F)(F)F)cc(C(F)(F)F)c2)C3=O)cc1 [Example 20, (9S)-7-[3,5-Bis(trifluoromethyl)benzyl]-6,7,8,9,10,11-hexahydro-9-methyl-5-(4-methylphenyl)-6,13-dioxo-13H-[1,4]diazocino[2,1-g][1,7]naphthyridine]
280 to 281 °C	Cc1ccc(-c2c3n(c(=O)c4ncccc24)CCC(C)CN(Cc2cc(C(F)(F)F)cc(C(F)(F)F)c2)C3=O)cc1 (racemic) [Example 16, (+/−)-7-[3,5-Bis(trifluoromethyl)benzyl]-6,7,8,9,10,11-hexahydro-9-methyl-5-(4-methylphenyl)-6,13-dioxo-13H-[1,4]diazocino[2,1-g][1,7]naphthyridine]

SMILES	melting point
CC(=O)OCc1cc(-c2ccccc2)c2c(n1)OCCCN(Cc1cc(C(F)(F)F)cc(C(F)(F)F)c1)C2=O [Example 38, 9-Acetoxymethyl-5-[3,5-bis(trifluoromethyl)benzyl]-2.3,4,5-tetrahydro-6-oxo-7-phenyl-6H-pyrido[2,3-b][1,5]oxazocine]	156 to 157 °C
